Measurements taken from the supplement of paper PMC10307832.

Tests used:
Test in all cases: relative viability (nuclei count vs DMSO), 5 days (fraction); higher = more cells survive
[1] = compound: COc1cc2nc(N3CCCN(C)CC3)nc(NC3CCN(Cc4ccccc4)CC3)c2cc1OC + CS(=O)(=O)CCNCc1ccc(-c2ccc3ncnc(Nc4ccc(OCc5cccc(F)c5)c(Cl)c4)c3c2)o1 [Lapatinib] (partner 2 µM)
In short: (§1)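 Relative viability equals treated-well nuclei counts divided by vehicle-well nuclei counts. Counts came from 4× images of lung cancer cell lines grown in 1536-well plates for 5 days after pin-tool dosing on the day after seeding. Dosing used one drug alone or a fixed anchor-drug dose plus five library-drug doses (not always all listed) in √10 steps, and values are medians of duplicate plates.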

[2] = compound: Cc1cc([C@@H](C)Nc2ccccc2C(=O)O)c2nc(N3CCOCC3)cc(=O)n2c1 [AZD6482] + Cc1cc(Nc2cc(N3CCN(C)CC3)nc(Sc3ccc(NC(=O)C4CC4)cc3)n2)n[nH]1 [Tozasertib] (partner 0.1 µM)
In short: as §1

[3] = compound: Cc1cc([C@@H](C)Nc2ccccc2C(=O)O)c2nc(N3CCOCC3)cc(=O)n2c1 [AZD6482] + O=C(c1cc(Cc2n[nH]c(=O)c3ccccc23)ccc1F)N1CCN(C(=O)C2CC2)CC1 [Olaparib] (partner 8 µM)
In short: as §1

[4] = compound: Cc1cc([C@@H](C)Nc2ccccc2C(=O)O)c2nc(N3CCOCC3)cc(=O)n2c1 [AZD6482] + Cc1nc(NC(=O)N2CCC[C@H]2C(N)=O)sc1-c1ccnc(C(C)(C)C(F)(F)F)c1 [Alpelisib] (partner 2 µM)
In short: as §1

Cell Line	relative viability ([1]; first compound 0.2 µM)	relative viability ([1]; first compound 0.6325 µM)	relative viability ([1]; first compound 2 µM)	relative viability ([1]; first compound 6.325 µM)	relative viability ([2]; first compound 0.08 µM)	relative viability ([2]; first compound 0.253 µM)	relative viability ([2]; first compound 0.8 µM)	relative viability ([2]; first compound 2.53 µM)	relative viability ([2]; first compound 8 µM)	relative viability ([3]; first compound 0.08 µM)	relative viability ([3]; first compound 0.253 µM)	relative viability ([3]; first compound 0.8 µM)	relative viability ([3]; first compound 2.53 µM)	relative viability ([3]; first compound 8 µM)	relative viability ([4]; first compound 0.08 µM)	relative viability ([4]; first compound 0.253 µM)	relative viability ([4]; first compound 0.8 µM)	relative viability ([4]; first compound 2.53 µM)	relative viability ([4]; first compound 8 µM)
201T	0.95	1.04	1.08	0.982	0.904	0.889	0.88	0.766	0.875	0.839	0.8	0.872	0.727	0.848	0.908	0.809	0.842	0.714	0.848
A549	1.06	0.897	1.04	0.827	–	–	–	–	–	0.26	0.33	0.37	–	0.315	0.585	0.552	0.43	0.275	0.361
A-427	1.07	0.977	1.05	1	0.219	0.214	0.188	–	0.209	0.5	0.718	0.739	0.514	0.66	1.08	0.967	1.04	0.952	1.06
ABC-1	1.09	1.14	1.25	1.05	0.168	0.158	0.155	0.201	0.216	0.602	0.464	0.881	0.801	0.52	0.741	0.819	1.05	0.702	0.826
BEN	0.721	0.953	0.94	0.721	0.463	0.526	0.472	0.493	0.495	0.915	0.934	0.946	0.875	0.816	0.866	0.886	1.11	0.828	0.947
CAL-12T	0.58	0.626	0.603	0.672	0.303	0.338	0.37	0.228	0.218	0.746	0.702	0.712	0.595	0.543	0.902	0.661	0.901	0.535	0.721
COR-L23	0.848	0.849	1.1	0.92	0.183	0.192	0.162	0.153	0.171	0.272	0.414	0.364	0.195	0.34	0.461	0.737	0.854	0.494	0.76
COR-L 105	0.395	0.424	0.322	0.278	0.362	0.348	0.352	0.336	0.344	0.607	0.851	0.726	0.549	0.687	0.771	0.837	0.784	0.517	0.728
Calu-6	1.02	0.985	1.19	0.985	–	–	–	–	–	0.516	0.493	0.533	0.527	0.543	0.812	0.847	0.873	0.75	0.926
ChaGo-K-1	–	–	–	–	0.206	0.22	0.219	0.2	0.206	0.399	0.436	0.42	0.431	0.4	–	–	–	–	–
EBC-1	0.222	0.177	0.18	0.155	–	–	–	–	–	0.533	0.675	0.637	0.467	0.301	0.32	0.346	0.27	0.177	0.299
EKVX	0.194	0.218	0.232	0.223	0.337	0.296	0.344	0.362	0.202	0.671	0.773	0.855	0.469	0.595	0.516	0.46	0.591	0.336	0.581
EMC-BAC-2	0.908	0.881	0.914	0.891	0.285	0.288	0.274	0.287	0.272	0.455	0.479	0.523	0.471	0.44	0.639	0.624	0.619	0.571	0.617
EPLC-272H	0.947	1.1	1.03	0.938	0.185	0.111	0.211	0.277	0.157	0.567	0.681	0.687	0.463	0.294	0.593	–	0.554	0.436	0.577
H3255	0.235	0.273	0.258	0.165	0.607	0.595	0.42	0.442	0.594	0.559	0.567	0.596	0.492	0.55	0.531	0.54	0.614	0.335	0.496
HARA	0.793	0.86	0.823	0.804	0.212	0.108	0.0865	0.111	0.0791	0.685	1.01	0.943	0.683	0.519	0.459	0.762	0.849	–	0.708
HCC-15	0.888	0.789	0.824	0.765	0.344	0.332	0.377	0.37	0.293	0.692	0.662	0.737	0.697	0.768	0.856	0.797	0.861	0.736	0.772
HCC-44	1.01	0.989	1.05	1.04	0.945	0.895	0.88	0.957	0.829	1	1.11	1.1	1.15	1.08	0.546	0.596	0.649	0.505	0.435
